# Values quoted from earlier work in patent US20250339403A1, “Tryptamine Formulations and Uses Thereof” (Natural MedTech Pty Ltd, priority 2022, published 2025).
# Read-outs that look alike come from different tables or passages of the source.
# How the values were obtained:
# [1] = in vivo
# MAO = conditions: after administration
# [2] = not given; remark: listed apart in the source
# [3] = weight-to-weight basis
structure (smiles),measurement,setting,value
"O=C(NCCN1CCOCC1)c1ccc(Cl)cc1 [Moclobemide, 4-chloro-N-(2-morpholin-4-ylethyl)benzamide]",half-life,[1],about 2 hours
same,time by which inhibition of MAO is completely absent,MAO,≤ 24 h
"COc1ccc2[nH]cc(CCN(C)C)c2c1 [Formulation 5-MeO-DMT, 5-methoxy-N,N-dimethyltryptamine]",amount required to induce hallucinations,inhalation,6 to 20 mg
same,amount required to induce hallucinations,intravenous injection,0.7 to 3.1 mg
same,amount required to induce hallucinations,oral administration,~30 mg
same,amount required to induce hallucinations,sublingual or intranasal insufflation,~10 mg
"CN(C)CCc1c[nH]c2ccccc12 [DMT, N,N-dimethyltryptamine]",psychotropic effects,after oral consumption,not experienced
same,psychotropic effects,after smoking an equivalent dose,noted
same,effectiveness,inhaled free-base DMT (0.07-0.28 mg/kg),have not shown effectiveness
same,effectiveness,rectally administered (1.7 mg/kg of the bioxalate salt),have not shown effectiveness
same,share of recovered compounds that was DMT-N-oxide (DMT-NO),[2]; after oral administration,3%
same,share of recovered compounds that were MAO-dependent IAA,[2]; after oral administration,97%
same,unmetabolized DMT in blood samples and urine,[2]; after oral administration,no unmetabolized DMT
same,share of recovered metabolites that were MAO-dependent IAA,[2]; smoking DMT,63%
"CN(C)CCc1c[nH]c2cccc(O)c12 [Psilocin, 3-[2-(dimethylamino)ethyl]-1H-indol-4-ol]",potency relative to psilocybin,[3],about 1.4 times
